Data: patent publication US20230172884A1, “USE OF BUCILLAMINE IN THE TREATMENT OF INFECTIOUS DISEASES” (Revive Therapeutics Ltd, priority 2020, published 2023)

How the values were obtained:
COVID-19 = assay: Phase 3 multi-center, randomized, double-blind, placebo-controlled study of Bucillamine in patients with mild-moderate COVID-19; assay type: in vivo, human; settings: Bucillamine 100 mg or 200 mg TID for up to 14 days, preliminary indications to date
Protocol: A Phase 3 confirmatory clinical trial titled, “A Multi-Center, Randomized, Double-Blind, Placebo-Controlled Study of Bucillamine in Patients with Mild-Moderate COVID-19”, was undertaken to enroll up to 1,000 patients randomized 1:1:1 to receive Bucillamine 100 mg three times a day (“TID”), Bucillamine 200 mg TID or placebo TID for up to 14 days. The primary objective is to compare the frequency of hospitalization or death in patients with mild-moderate COVID-19 receiving Bucillamine therapy with those receiving placebo. The primary endpoint is the proportion of patients meeting a composite endpoint of hospitalization or death from the time of the first dose through Day 28 following randomization. Efficacy was assessed by comparing clinical outcomes (death or hospitalization), disease severity using the 8-category NIAID COVID ordinal scale, supplemental oxygen use, and progression of COVID-19 between patients receiving standard-of-care plus Bucillamine (high dose and/or low dose) and patients receiving standard-of-care plus placebo.

[1] = statement with literature references 8, 9; cited from earlier work
[2] = not told; cited from earlier work
[3] = versus N-acetylcysteine (NAC); cited from earlier work

## CC(C)(S)C(=O)NC(CS)C(=O)O (stereo not drawn) [Bucillamine, N-(mercapto-2-methylpropionyl)-l-cysteine]
COVID-19
  hospitalization or death from COVID-19 (composite clinical outcome): none of the patients receiving Bucillamine in the trial have to date been hospitalised for COVID-19 or have died from COVID-19
[1]
  toxicity: non-toxic
[2]
  cell permeability: highly cell permeable
[3]
  potency as a thiol donor in vivo relative to NAC: 16 fold
